Where “and” joins values, the source holds several entries; their conditions need not be identical. Equal values may be shown once. Read-outs that look alike come from different tables or passages of the source.
Experiments:
[1] = test system: SARS-CoV-2 USA/NYU-VC-003/2020; test: microbe, parasite or virus in culture; format: cell-based
SARS-CoV-2 USA-WA1/2020 [2] = test: Time-of-drug-addition assay in A549+ACE2 cells; format: cell-based; details: 12 hpi
SARS-CoV-2 USA-WA1/2020 [3] = test: microbe, parasite or virus in culture; format: cell-based
SARS-CoV-2 = details: cited from earlier work
BCi-NS1.1 cells = details: dose range up to 10 μM, 48 hours
SARS-CoV-2 USA-WA1/2020 [4] = format: cell-based; details: for SARS-CoV-2 infectious titers in apical washes: 10 μM basolateral, washes in 12 h increments up to 72 h; for number of SARS-CoV-2-N-expressing infected cells in HAEC: 10 μM, 72 h endpoint, immunofluorescence
[5] = test system: polarized human airway epithelial cultures (HAEC)
coronavirus 3CL^pro = details: cited from earlier work
in vitro = details: human
COVID-19 = details: patients with more advanced infection, intravenous ref 55; cited from earlier work
[6] = Severe acute respiratory syndrome coronavirus 2, A549-ACE2

## CC(C)C[C@H](NC(=O)OCc1ccccc1)C(=O)N[C@@H](CC1CCNC1=O)C(O)S(=O)(=O)[O-].[Na+] (some centres unmarked) [GC-376]
[1]
  EC50: 529 nM
  EC90: 2730 nM
SARS-CoV-2 USA-WA1/2020 [2]
  minimum treatment dose that led to undetectable infection levels: 10 µM
SARS-CoV-2 USA-WA1/2020 [3]
  EC50: 623 nM and 696 nM
  EC90: 4550 nM and 5250 nM
  protection of A549+ACE2 cells from virus-induced CPE: unable to protect cells from virus-induced CPE
A549+ACE2 cells
  CC50: > 10000 nM
SARS-CoV-2; Vero E6 cells ref 11
  EC50: 900 nM

## COc1cccc2[nH]c(C(=O)N[C@@H](CC(C)C)C(=O)N[C@@H](C[C@@H]3CCNC3=O)C(=O)CO)cc12 [PF-00835231]
BCi-NS1.1 cells
  ATP levels as a measure of cell viability: did not detect a decrease in ATP
[1]
  EC50: 184 nM and 326 nM
  EC90: 591 nM and 1170 nM
SARS-CoV-2 USA-WA1/2020 [2]
  minimum treatment dose that led to undetectable infection levels: 3 µM
SARS-CoV-2 USA-WA1/2020 [3]
  change in antiviral efficacy when blocking MDR1 activity: no changes in antiviral efficacy
  protection of A549+ACE2 cells from ring syncytia formation (CPE): fully protected
  protection of A549+ACE2 cells from virus-induced CPE: fully protected
A549+ACE2 cells
  CC50: > 10000 nM
SARS-CoV-2; Vero E6 cells ref 9, 14
  effect of chemical inhibition of MDR1 on antiviral efficacy: significantly increased
SARS-CoV-2; Vero E6 cells ref 9
  EC50: 270 nM
SARS-CoV-2 USA-WA1/2020 [4]
  change in antiviral efficacy when blocking MDR1 activity: no changes in antiviral efficacy
  SARS-CoV-2 infectious titers in apical washes: viral titers below the limit of detection at most time points
  number of SARS-CoV-2-N-expressing infected cells in HAEC: number of infected cells significantly reduced
[5]
  adverse effects on morphology of HAEC (histology): Neither drug caused measurable adverse effects on the morphology
  trans-epithelial resistance (TEER) over time: did not observe this trend
Coronavirus 3CL^pro
  inhibition of 3CL^pro protease activity: potent inhibition

## CCC(CC)COC(=O)[C@H](C)N[P@](=O)(OC[C@H]1O[C@@](C#N)(c2ccc3c(N)ncnn23)[C@H](O)[C@@H]1O)Oc1ccccc1 [remdesivir]
BCi-NS1.1 cells
  ATP levels as a measure of cell viability: caused a reduction in ATP levels compared to carrier control, albeit not statistically significantly
[1]
  EC50: 238 nM
[1]; [6]
  EC50: 283 nM
  EC90: 589 nM
SARS-CoV-2 USA-WA1/2020 [2]
  minimum treatment dose that led to undetectable infection levels: 10 µM
In vitro
  CC50: > 10000 nM
SARS-CoV-2 USA-WA1/2020 [3]
  EC50: 238 nM
  protection of A549+ACE2 cells from ring syncytia formation (CPE): fully protected
SARS-CoV-2 USA-WA1/2020 [3]; [6]
  EC50: 442 nM
SARS-CoV-2 USA-WA1/2020 [4]
  SARS-CoV-2 infectious titers in apical washes: viral titers below the limit of detection at most time points
  number of SARS-CoV-2-N-expressing infected cells in HAEC: number of infected cells significantly reduced
[5]
  adverse effects on morphology of HAEC (histology): Neither drug caused measurable adverse effects on the morphology
  trans-epithelial resistance (TEER) over time: negatively impacted TEER over time, albeit not statistically significantly
COVID-19
  patients with benefit: 68%

— paper PMC7457613 (bioRxiv, 2021)
